Test results published in patent US20040147532A1, “Liquid conjugates of solid pharmaceuticals” (Pfizer Inc, priority 2002, published 2004).
Values after ≈ are worked out from the molar mass of the structure shown. Where a name gives a salt, the structure may show the parent alone.

Assay: Solubility of ziprasidone from conjugates in phosphate buffered saline (HPLC)
Assay type: physicochemical
Conditions: PBS, continuous agitation; for Solubility of ziprasidone, Sample Conc., 20 min: time point 20 min; for Solubility of ziprasidone, Sample Conc., 7 days: time point 7 days
Protocol: For the solubility determination, all conjugate samples were placed in Eppendorf tubes with 1-ml aliquot of phosphate buffered saline (PBS), pH adjusted to 7.4. At selected time points (20 minutes, 1 hour, 6 hours, 24 hours, and 7 days), 200 µl of PBS exposed to each sample was withdrawn and replaced with fresh medium. The samples were continuously agitated for the duration of the study. To prepare HPLC samples, the 200-μl samples were filtered through 0.22-μm syringe, filter membrane, diluted as needed, and injected at appropriately adjusted volume to determine ziprasidone concentration in solution.

SMILES	Solubility of ziprasidone, Sample Conc., 20 min (pH 7.4)	Solubility of ziprasidone, Sample Conc., 6 hours (pH 7.4, time point 6 hours)	Solubility of ziprasidone, Sample Conc., 7 days (pH 7.4)	solubility at 24 h (phosphate buffered saline, pH 7.4, aqueous buffer, thermodynamic from solid, time point 24 hours, read-out: Solubility of ziprasidone, Sample Conc., 24 hours)
O=C1Cc2cc(CCN3CCN(c4nsc5ccccc45)CC3)c(Cl)cc2N1 [Ziprasidone Free Base, 5-[2-[4-(1,2-benzisothiazol-3-yl)-1-piperazinyl]ethyl]-6-chloro-1,3-dihydro-2H-indol-2-one]	0.01 µg/mL	0.22 µg/mL	0.01 µg/mL	2 µg/mL (≈ 4.84 µM)
O=C1Cc2cc(CCN3CCN(c4nsc5ccccc45)CC3)c(Cl)cc2N1 [Ziprasidone Mesylate]	1.46 µg/mL		1.31 µg/mL	
